Each structure is given as a SMILES string. Bounds are passed on as bounds.

One experiment concerns cultured human mast cells (CHMC). Put plainly: CHMC low cell density IgE activation: tryptase release assay. It counts as cell-based. As to conditions: Homo sapiens, Mast cell, anti-IgE-induced tryptase release, low density CHMC. As for the experimental part: Inhibition of degranulation was measured at low density (and could also be measures at high cell density) by quantifying the release of the granule specific factor tryptase. Tryptase was quantified using a fluorogenic substrates as described in its respective examples. Histamine, TNFα, IL-6, IL-13 and LTC4 can be quantified, if desired, using the following commercial ELISA kits: histamine (Immunotech #2015, Beckman Coulter), TNFα (Biosource #KHC3011), IL-6 (Biosource #KMC0061), IL-13 (Biosource #KHC0132) and LTC4 (Cayman Chemical #520211). The protocols for various assays are provided below.
A second phase is performed to convert the expanded CD34-negative progenitor cells into differentiated mucosal mast cells. These mucosal cultured human mast cells (“CHMC”) are derived from CD34+ cells isolated from umbilical cord blood and treated to form a proliferated population of CD34-negative progenitor cells, as described above. To produce the CD34-negative progenitor cells, the resuspension cycle for the culture was the same as that described above, except that the culture was seeded at a density of 425,000 cells/mL and 15% additional media was added on about day four or five without performing a cell count. Also, the cytokine composition of the medium was modified such that it contained SCF (200 ng/mL) and recombinant human IL-6 (200 ng/mL; Peprotech, Catalog No. 200-06 reconstituted to 100 ug/mL in sterile 10 mM acetic acid) (“CM/SCF/IL-6 medium”).
To duplicate 96-well U-bottom plates (Costar 3799) add 65 ul of compound dilutions or control samples that have been prepared in MT [137 mM NaCl, 2.7 mM KCl, 1.8 mM CaCl2, 1.0 mM MgCl2, 5.6 mM Glucose, 20 mM Hepes (pH 7.4), 0.1% Bovine Serum Albumin, (Sigma A4503)] containing 2% MeOH and 1% DMSO. Pellet CHMC cells (980 rpm, 10 min) and resuspend in pre-warmed MT. Add 65 ul of cells to each 96-well plate. Depending on the degranulation activity for each particular CHMC donor, load 1000-1500 cells/well. Mix four times followed by a 1 hr incubation at 37° C. During the 1 hr incubation, prepare 6× anti-IgE solution [rabbit anti-human IgE (1 mg/ml, Bethyl Laboratories A80-109A) diluted 1:167 in MT buffer]. Stimulate cells by adding 25 ul of 6× anti-IgE solution to the appropriate plates. Add 25 ul MT to un-stimulated control wells. Mix twice following addition of the anti-IgE. Incubate at 37° C. for 30 minutes. During the 30 minute incubation, dilute the 20 mM tryptase substrate stock solution [(Z-Ala-Lys-Arg-AMC.2TFA; Enzyme Systems Products, #AMC-246)] 1:2000 in tryptase assay buffer [0.1 M Hepes (pH 7.5), 10% w/v Glycerol, 10 uM Heparin (Sigma H-4898) 0.01% NaN3]. Spin plates at 1000 rpm for 10 min to pellet cells. Transfer 25 ul of supernatant to a 96-well black bottom plate and add 100 ul of freshly diluted tryptase substrate solution to each well. Incubate plates at room temperature for 30 min. Read the […] of the plates at 355 nm/460 nm on a spectrophotometric plate reader.
The results of low density CHMC assays for release of tryptase (Section 6.2.2) are provided for examplary quinoline compounds in TABLE 1, supra. In TABLE 1, a value of “+” indicates an IC50 of 20 μM or less; a value of “++” indicates an IC50 of 10 μM or less; and a value of “+++” indicates an IIC50 of 5 μM or less.
Consider `Clc1cccc2ccc(Nc3cc(-c4ccccc4)n[nH]3)nc12` [Compound 7, 8-chloro-2-(3-phenyl-1H-pyrazol-5-ylamino)quinoline], for which the IC50 was at most 5 µM.

On to `COc1ccc(-c2cc(Nc3ccc4cccc(Cl)c4n3)n[nH]2)cc1` [Compound 10, 8-chloro-2-[5-(4-methoxyphenyl)-1H-pyrazol-3-ylamino]quinoline], for which the IC50 was at most 5 µM.

In the case of `COc1ccc(-c2cc(Nc3ccc4cc(Cl)ccc4n3)n[nH]2)cc1` [Compound 11, 6-chloro-2-[5-(4-methoxyphenyl)-1H-pyrazol-3-ylamino]quinoline], the IC50 is at most 5 µM.

As to `Cc1cc(Nc2nc[nH]c2C(N)=O)nc2ccccc12` [Compound 15, 2-(5-aminocarbonyl-1H-imidazol-4-ylamino)-4-methylquinoline], the IC50 is at most 10 µM.

Turning to `NC(=O)c1[nH]cnc1Nc1cc(C(=O)N2CCOCC2)c2ccccc2n1` [Compound 22, 2-(5-aminocarbonyl-1H-imidazol-4-ylamino)-4-(4-morpholinocarbonyl)quinoline], the IC50 is over 20 µM.

As for `Clc1ccc2nc(Nc3cc(-c4cccs4)n[nH]3)ccc2c1` [Compound 9, 6-chloro-2-(3-thiophen-2-yl-1H-pyrazol-5-ylamino)quinoline], the IC50 was at most 5 µM.

Compound `CCOC(=O)c1c[nH]nc1Nc1ccc2cccc(Cl)c2n1` [Compound 17, 8-chloro-2-(4-ethoxycarbonyl-1H-pyrazol-3-ylamino)quinoline] registered an IC50 of at most 10 µM.

Consider `Clc1ccc2nc(Nc3cc(-c4ccccc4)n[nH]3)ccc2c1` [Compound 1, 6-chloro-2-(3-phenyl-1H-pyrazol-5-ylamino)quinoline], for which the half-maximal inhibitory concentration (IC50) is at most 5 µM.

For `Clc1cccc2ccc(Nc3cc(-c4cccs4)n[nH]3)nc12` [Compound 8, 8-chloro-2-(3-thiophen-2-yl-1H-pyrazol-5-ylamino)quinoline], the IC50 was at most 5 µM.

In turn, `Clc1cccc2ccc(Nc3n[nH]c(-c4ccccc4)c3Br)nc12` [Compound 2, 2-(4-bromo-5-phenyl-1H-pyrazol-3-ylamino)-8-chloroquinoline] came in with a concentration for half-maximal inhibition (IC50) of at most 5 µM.

With `Cc1cc(Nc2ccc3cccc(Cl)c3n2)n[nH]1` [Compound 12, 8-chloro-2-(5-methyl-1H-pyrazol-3-ylamino)quinoline], the IC50 was at most 5 µM.

Regarding `N#Cc1c[nH]nc1Nc1ccc2cccc(Cl)c2n1` [Compound 20, 8-chloro-2-(4-cyano-1H-pyrazol-3-ylamino)quinoline], the IC50 was at most 20 µM.

`Oc1cccc2ccc(Nc3nc[nH]c3Cl)nc12` [Compound 21, 2-(5-chloro-1H-imidazol-4-ylamino)-8-hydroxyquinoline] yielded an IC50 of over 20 µM.

For the compound `NC(=O)c1[nH]cnc1Nc1ccc2cccc(Cl)c2n1` [Compound 5, 2-(5-aminocarbonyl-1H-imidazol-4-ylamino)-8-chloroquinoline], the IC50 was at most 5 µM.

With `NC(=O)c1c[nH]nc1Nc1ccc2cc(Cl)ccc2n1` [Compound 16, 2-(4-aminocarbonyl-1H-pyrazol-3-ylamino)-6-chloroquinoline], the IC50 was at most 10 µM.

In the case of `NC(=O)c1c[nH]nc1Nc1ccc2cccc(Cl)c2n1` [Compound 6, 2-(4-aminocarbonyl-1H-pyrazol-3-ylamino)-8-chloroquinoline], the IC50 is at most 5 µM.

`Clc1ccc2nc(Nc3n[nH]c(-c4ccccc4)c3Br)ccc2c1` [Compound 3, 2-(4-bromo-5-phenyl-1H-pyrazol-3-ylamino)-6-chloroquinoline] gave an IC50 of at most 5 µM.

Consider `Clc1cccc2ccc(Nc3cc[nH]n3)nc12` [Compound 19, 8-chloro-2-(1H-pyrazol-3-ylamino)quinoline], for which the IC50 was at most 20 µM.

As for `NC(=O)c1[nH]cnc1Nc1ccc2cc(Cl)ccc2n1` [Compound 4, 2-(5-aminocarbonyl-1H-imidazol-4-ylamino)-6-chloroquinoline], the IC50 is at most 5 µM.

Turning to `CC(C)(C)c1cc(Nc2ccc3cccc(Cl)c3n2)n[nH]1` [Compound 13, 2-(5-tert-butyl-1H-pyrazol-3-ylamino)-8-chloroquinoline], the IC50 is at most 10 µM.

The compound `CNC(=O)c1cc(Nc2nc[nH]c2C(N)=O)nc2ccccc12` [Compound 18, 2-(5-aminocarbonyl-1H-imidazol-4-ylamino)-4-methylaminocarbonylquinoline] displayed an IC50 of at most 10 µM.

The same experiment, now with this note: Homo sapiens, Mast cell, anti-IgE-induced tryptase release, low density CHMC; stated in text.
The compound `NC(=O)c1[nH]cnc1Nc1cc(C(=O)N2CCOCC2)c2ccccc2n1` [Compound 22, 2-(5-aminocarbonyl-1H-imidazol-4-ylamino)-4-(4-morpholinocarbonyl)quinoline] came in with an IC50 of over 20 µM.

As to `Oc1cccc2ccc(Nc3nc[nH]c3Cl)nc12` [Compound 21, 2-(5-chloro-1H-imidazol-4-ylamino)-8-hydroxyquinoline], the IC50 was over 20 µM.

Still in this experiment, the particulars now being: referring to TABLE 1.
`CCOC(=O)c1c[nH]nc1Nc1ccc2cccc(Cl)c2n1` [Compound 17, 8-chloro-2-(4-ethoxycarbonyl-1H-pyrazol-3-ylamino)quinoline]: the “activity in "prodrug" form” value is “active”.

Consider `CNC(=O)c1cc(Nc2nc[nH]c2C(N)=O)nc2ccccc12` [Compound 18, 2-(5-aminocarbonyl-1H-imidazol-4-ylamino)-4-methylaminocarbonylquinoline], for which the “activity in "prodrug" form” value is “active”.

For the next experiment, the system named is passive cutaneous anaphylaxis (PCA) response.
Assay: not given
As to conditions: 8 mg/kg, i.p., 30 minutes pretreatment time, n=23 experiments.
With `CN1CCC(=C2c3ccccc3C=Cc3ccccc32)CC1` [Cyproheptadine, cyproheptadine], the “inhibition of the PCA response” value was 61%+/−4.

Still in this experiment, the particulars now being: highest dose, 50 mg/kg, i.p., 30 minutes pretreatment time.
On to `CN(C)CCOC(c1ccccc1)c1ccccc1` [diphenhydramine], for which the “inhibition of the PCA response” value is “up to 86%”.

A word on the IC50: it is the point on the concentration scale where inhibition reaches its midpoint. Read a high IC50 as a need for much substance.

The values above are taken from patent publication US7521560B2, “2-substituted quinoline compounds and their uses” (Rigel Pharmaceuticals, Inc., priority 2004, dated 2009).
